Assay type in all cases: functional
The subject of test [1] is Mycobacterium tuberculosis. As to the kind of experiment: Antituberculosis activity against linezolid-resistant Mycobacterium tuberculosis by bactec MGIT 960 method.
Test [2] deals with Mycobacterium tuberculosis. As to the kind of experiment: Antituberculosis activity against linezolid-resistant Mycobacterium tuberculosis having mutation in 23S rRNA with G to T base pair exchange at position 2576.
Test [3] relates to Mycobacterium tuberculosis. As to the kind of experiment: Antituberculosis activity against linezolid-resistant Mycobacterium tuberculosis by bactec 460 TB method.
The subject of test [4] is Mycobacterium tuberculosis. Description: Antituberculosis activity against linezolid-resistant Mycobacterium tuberculosis having mutation in 23S rRNA with identical G to T base pair exchange at position 2061.
The subject of test [5] is Mycobacterium tuberculosis. As to the kind of experiment: Antituberculosis activity against linezolid-resistant Mycobacterium tuberculosis having mutation in 23S rRNA with alteration in domain V.
Test [6] relates to Mycobacterium tuberculosis. Description: Antituberculosis activity against linezolid-resistant Mycobacterium tuberculosis without mutation in 23S rRNA.

Values after ≈ are worked out from the molar mass of the structure shown. Some results are limits rather than exact numbers.

As for `CC(=O)NC[C@H]1CN(c2ccc(N3CCOCC3)c(F)c2)C(=O)O1` [LINEZOLID], the MIC in test [1] was not above 1 µg/mL; in test [2] it was 16 µg/mL (≈ 47.4 µM); in test [3], not above 1 µg/mL; in test [4], 32 µg/mL (≈ 94.9 µM); in test [5], “>=64 ug ml-1”; in test [6] it was 4 µg/mL (≈ 11.9 µM).

The MIC is the smallest concentration in the dilution series that meets the test's criterion for growth inhibition. Lower therefore signals a more susceptible organism.

Values taken from ChEMBL document CHEMBL1152471 (2008).
